The subject of one data set is mouse leukemia L1210. In words: Antitumor activity for L1210 (life prolonging effect, mouse leukemia transplanted intraperitoneally). The class given is in vivo. Particulars: for minimal effective dose: Mus musculus, L1210, ip, denominator of therapeutic index, i.p. total dose, read-out: Minimum effective dose; for 40-day survivors: at optimum dose, group of six female CDF1 mice; for Therapeutic Index (Maximum tolerable dose/Minimum effective dose): i.p., L1210, CDF1 mice. How it is done: (§1) 5×10^5 cells of mouse leukemia L1210 were transplanted intraperitoneally to a group of six female CDF1 mice (7 weeks old, body weight 17-19 g). The test compound was administered intraperitoneally on day 1, 5 and 9 and its life prolonging effect was observed.
(§2) In a case of the administration of a test compound as an acid addition salt the test compound was dissolved in water. The total administration amount was 1.56 mg/kg-400 mg/kg. The antitumor activity was expressed by the value (T/C%) wherein T denotes the mean survival days in the drug administered group and C denotes those in the non administered group. In case of equal to or more than 125% the drug is considered to be effective.

Assay in data set [1]: as above
The class given is in vivo. The note with it: mouse, in vivo, ip; numerator of therapeutic index; i.p. total dose; read-out: Maximum tolerable dose. How it is done:
as §1, §2

The nature of data set [2]: Acute toxicity test by intraperitoneal administration. The note with it: mouse, in vivo, ip, ICR male mice, 1 week observation. How it is done:
Acute toxicity test was conducted by intraperitoneal administration using a group of twenty ICR male mice (4 weeks old, body weight around 20 g).
LD50 value was calculated by the Richfield-Willcokson method from a lethal ratio observing the fate of mice during 1 week after administration of a test compound.

The nature of another data set: Water solubility. The format is physicochemical.

Consider 17 molecules from patent US5843954A, “Camptothecin derivatives, preparations thereof and antitumor agents” (priority 1994, dated 1998).

Values after ≈ are worked out from the molar mass of the structure shown. Bounds are passed on as bounds.

Turning to `CCc1c2c(nc3cc(F)ccc13)-c1cc([C@@](O)(CC)C(=O)NCCN(C)C)c(COC(=O)c3ccc(OC)cc3)c(=O)n1C2` [Compound C11], in the data set with mouse leukemia L1210, the minimal effective dose is 6.25 mg/kg, the 40-day survivors is 0/6 and the “Therapeutic Index (Maximum tolerable dose/Minimum effective dose)” value stood at 8. For the same molecule, in data set [1], the MTD turned out to be 50 mg/kg. The LD50 at 168 h in data set [2] was 146 mg/kg. This molecule also displayed a solubility in “Water solubility” of 8 mg/mL (≈ 13 mM).
`CCc1c2c(nc3cc(Cl)ccc13)-c1cc([C@@](O)(CC)C(=O)NCCN(C)C)c(COC(=O)CCSC)c(=O)n1C2` [Compound C12]: in the data set on mouse leukemia L1210, the minimal effective dose is 6.25 mg/kg and the 40-day survivors is 1/6. In addition, the MTD in data set [1] came out at 25 mg/kg. The molecule also came in with an LD50 at 168 h in data set [2] of 284 mg/kg. Further, the solubility in the data set “Water solubility” was more than 64 mg/mL.
With `CCc1c2c(nc3cc(F)c(F)cc13)-c1cc([C@@](O)(CC)C(=O)NCCN(C)C)c(COC(=O)c3ccc(OC)cc3)c(=O)n1C2` [Compound C16], in the data set on mouse leukemia L1210, the minimal effective dose stood at 6.25 mg/kg, the 40-day survivors is given as 0/6 and the “Therapeutic Index (Maximum tolerable dose/Minimum effective dose)” value is 2. Moreover, the MTD in data set [1] amounted to 12.5 mg/kg. Moreover, the 50% lethal dose (LD50) at 168 h in data set [2] came to 65.6 mg/kg. This molecule also showed a solubility in the data set “Water solubility” of 6 mg/mL (≈ 9.45 mM).
For the molecule `CCC(=O)OCc1c([C@@](O)(CC)C(=O)NCCN(C)C)cc2n(c1=O)Cc1c-2nc2cc(Cl)c(Cl)cc2c1CC` [Compound C17], in the data set on mouse leukemia L1210, the minimal effective dose amounted to 1.56 mg/kg, the 40-day survivors is on record as 2/6 and the “Therapeutic Index (Maximum tolerable dose/Minimum effective dose)” value is recorded as 4. Besides, the MTD in data set [1] turned out to be 6.25 mg/kg. The molecule further displayed an LD50 at 168 h in data set [2] of 112 mg/kg. Further, the solubility in the data set “Water solubility” is more than 64 mg/mL.
With `CCCC(=O)OCc1c([C@@](O)(CC)C(=O)NCCN(C)C)cc2n(c1=O)Cc1c-2nc2cc(Cl)c(Cl)cc2c1CC` [Compound C18], in the data set with mouse leukemia L1210, the minimal effective dose is less than 1.56 mg/kg, the 40-day survivors is on record as 0/6 and the “Therapeutic Index (Maximum tolerable dose/Minimum effective dose)” value was more than 2. The MTD in data set [1] came out at 3.13 mg/kg. The 50% lethal dose (LD50) at 168 h in data set [2] was 92.3 mg/kg. The solubility in the data set “Water solubility” came out at 35 mg/mL (≈ 58 mM).
As to `CCc1c2c(nc3cc(Cl)c(Cl)cc13)-c1cc([C@@](O)(CC)C(=O)NCCN(C)C)c(COC(=O)CCSC)c(=O)n1C2` [Compound C19], in the data set with mouse leukemia L1210, the minimal effective dose was less than 1.56 mg/kg, the 40-day survivors is given as 0/6 and the “Therapeutic Index (Maximum tolerable dose/Minimum effective dose)” value is on record as more than 2. In data set [1], the MTD amounted to 3.13 mg/kg. Besides, in data set [2], the LD50 at 168 h turned out to be 94.8 mg/kg. Besides, in “Water solubility”, the solubility stood at 24 mg/mL (≈ 37.8 mM).
Regarding `CCC(=O)OCc1c([C@@](O)(CC)C(=O)NCCN(C)C)cc2n(c1=O)Cc1c-2nc2cc(F)c(OC)cc2c1CC` [Compound C20], in the data set on mouse leukemia L1210, the minimal effective dose was less than 1.56 mg/kg, the 40-day survivors is 0/6 and the “Therapeutic Index (Maximum tolerable dose/Minimum effective dose)” value is listed as more than 2. Further, the MTD in data set [1] is 3.13 mg/kg. Further, in data set [2], the LD50 at 168 h was 84.5 mg/kg. In addition, the solubility in “Water solubility” was more than 60 mg/mL.
As to `CCCC(=O)OCc1c([C@@](O)(CC)C(=O)NCCN(C)C)cc2n(c1=O)Cc1c-2nc2cc(F)c(OC)cc2c1CC` [Compound C21], in the data set on mouse leukemia L1210, the minimal effective dose is less than 1.56 mg/kg, the 40-day survivors was 0/6 and the “Therapeutic Index (Maximum tolerable dose/Minimum effective dose)” value is more than 2. Also, in data set [1], the MTD turned out to be 3.13 mg/kg. The LD50 at 168 h in data set [2] amounted to 124 mg/kg. In the data set “Water solubility”, the solubility was more than 63 mg/mL.
Take `CCC(=O)OCc1c([C@@](O)(CC)C(=O)NCCN(C)C)cc2n(c1=O)Cc1c-2nc2cc(F)c(C)cc2c1CC` [Compound C23]: in the data set with mouse leukemia L1210, the minimal effective dose is less than 1.56 mg/kg, the 40-day survivors is listed as 0/6 and the “Therapeutic Index (Maximum tolerable dose/Minimum effective dose)” value is more than 8. Further, the MTD in data set [1] amounted to 12.5 mg/kg. For the same molecule, the LD50 at 168 h in data set [2] worked out at 184 mg/kg. In “Water solubility”, the solubility is 20 mg/mL (≈ 36.2 mM).
Turning to `CCCC(=O)OCc1c([C@@](O)(CC)C(=O)NCCN(C)C)cc2n(c1=O)Cc1c-2nc2cc(F)c(C)cc2c1CC` [Compound C24], in the data set with mouse leukemia L1210, the minimal effective dose came out at 1.56 mg/kg, the 40-day survivors was 1/6 and the “Therapeutic Index (Maximum tolerable dose/Minimum effective dose)” value is more than 16. In addition, the MTD in data set [1] was 25 mg/kg. This molecule returned an LD50 at 168 h in data set [2] of 203 mg/kg. In “Water solubility”, this molecule gave a solubility of 42 mg/mL (≈ 74.1 mM).
Turning to `CCc1c2c(nc3cc(F)c(C)cc13)-c1cc([C@@](O)(CC)C(=O)NCCN(C)C)c(COC(=O)CCSC)c(=O)n1C2` [Compound C25], in the data set on mouse leukemia L1210, the minimal effective dose was less than 1.56 mg/kg, the 40-day survivors is reported as 1/6 and the “Therapeutic Index (Maximum tolerable dose/Minimum effective dose)” value is more than 8. Besides, the MTD in data set [1] turned out to be 12.5 mg/kg. In data set [2], this molecule had a median lethal dose (LD50) at 168 h of 154 mg/kg. The same molecule yielded a solubility in the data set “Water solubility” of more than 63 mg/mL.
As to `CCc1c2c(nc3cc(F)c(C)cc13)-c1cc([C@@](O)(CC)C(=O)NCCN(C)C)c(COC(=O)c3ccc(OC)cc3)c(=O)n1C2` [Compound C26], in the data set with mouse leukemia L1210, the minimal effective dose worked out at 12.5 mg/kg, the 40-day survivors is 0/6 and the “Therapeutic Index (Maximum tolerable dose/Minimum effective dose)” value was more than 4. Besides, in data set [1], the MTD was 50 mg/kg. For the same molecule, the LD50 at 168 h in data set [2] turned out to be 113 mg/kg. In “Water solubility”, the solubility is 9 mg/mL (≈ 14.3 mM).
As to `CCC(=O)OCc1c([C@@](O)(CC)C(=O)NCCN(C)C)cc2n(c1=O)Cc1c-2nc2ccc(O)cc2c1CC` [Compound C28], in the data set with mouse leukemia L1210, the minimal effective dose worked out at 12.5 mg/kg, the 40-day survivors is recorded as 0/6 and the “Therapeutic Index (Maximum tolerable dose/Minimum effective dose)” value is listed as 16. For the same molecule, the MTD in data set [1] amounted to 200 mg/kg. Moreover, the LD50 at 168 h in data set [2] amounted to 341 mg/kg. In “Water solubility”, this molecule gave a solubility of more than 56 mg/mL.
`CCCC(=O)OCc1c([C@@](O)(CC)C(=O)NCCN(C)C)cc2n(c1=O)Cc1c-2nc2ccc(O)cc2c1CC` [Compound C30]: in the data set with mouse leukemia L1210, the minimal effective dose was determined as 6.25 mg/kg, the 40-day survivors was 0/6 and the “Therapeutic Index (Maximum tolerable dose/Minimum effective dose)” value is given as 32. For the same molecule, the MTD in data set [1] was found to be 200 mg/kg. For the same molecule, in data set [2], the LD50 at 168 h worked out at 362 mg/kg. This molecule returned a solubility in the data set “Water solubility” of more than 58 mg/mL.
In the case of `CCc1c2c(nc3ccc(O)cc13)-c1cc([C@@](O)(CC)C(=O)NCCN(C)C)c(COC(=O)CCSC)c(=O)n1C2` [Compound C32], in the data set with mouse leukemia L1210, the minimal effective dose turned out to be 6.25 mg/kg, the 40-day survivors is recorded as 0/6 and the “Therapeutic Index (Maximum tolerable dose/Minimum effective dose)” value worked out at 32. For the same molecule, the MTD in data set [1] was 200 mg/kg. The molecule also registered an LD50 at 168 h in data set [2] of 307 mg/kg. In addition, the solubility in the data set “Water solubility” was more than 62 mg/mL.
In the case of `CCc1c2c(nc3ccc(O)cc13)-c1cc([C@@](O)(CC)C(=O)NCCN(C)C)c(COC(=O)c3ccc(F)cc3)c(=O)n1C2` [Compound C36], in the data set on mouse leukemia L1210, the minimal effective dose is 12.5 mg/kg, the 40-day survivors is listed as 0/6 and the “Therapeutic Index (Maximum tolerable dose/Minimum effective dose)” value is recorded as 16. In data set [1], the MTD turned out to be 200 mg/kg. For the same molecule, the 50% lethal dose (LD50) at 168 h in data set [2] is 477 mg/kg. Further, the solubility in the data set “Water solubility” turned out to be 17 mg/mL (≈ 28.2 mM).
`CCc1c2c(nc3ccc(O)cc13)-c1cc([C@@](O)(CC)C(=O)NCCN(C)C)c(COC(=O)c3cccc(F)c3)c(=O)n1C2` [Compound C38]: in the data set with mouse leukemia L1210, the minimal effective dose worked out at 12.5 mg/kg, the 40-day survivors is listed as 0/6 and the “Therapeutic Index (Maximum tolerable dose/Minimum effective dose)” value stood at 16. In data set [1], the MTD came out at 200 mg/kg. For the same molecule, in data set [2], the LD50 at 168 h worked out at 421 mg/kg. The molecule also displayed a solubility in “Water solubility” of 6 mg/mL (≈ 9.96 mM).
